# According to patent US20230141403A1 (Hoffmann-La Roche Inc., priority 2020, published 2023):
# Where a name gives a salt, the structure may show the parent alone.
# Test system: Acinetobacter baumannii ATCC17961
# Experiment: Antimicrobial susceptibility testing: 90% growth inhibitory concentration (IC90) determination
# Format: cell-based
# Details: 90% growth inhibitory concentration; Iso-Sensitest broth, optical density at 600 nm over 16h, 35±2° C.; read-out: AB ATCC 17961 IC90
# Method: Antimicrobial Susceptibility Testing:
# 90% Growth Inhibitory Concentration (IC90) Determination
# The in vitro antimicrobial activity of the compounds was determined according to the following procedure:
# The assay used a 10-points Iso-Sensitest broth medium to measure quantitatively the in vitro activity of the compounds against Acinetobacter baumannii ATCC17961 or ATCC17978.
# Stock compounds in DMSO were serially twofold diluted (e.g. range from 50 to 0.097 μM final concentration) in 384 wells microtiter plates and inoculated with 49 μl the bacterial suspension in Iso-Sensitest medium to have a final cell concentration of ˜5×10^(5) CFU/ml in a final volume/well of 50 ul/well. Microtiter plates were incubated at 35±2° C.
# Bacterial cell growth was determined with the measurement of optical density at λ=600 nm each 20 minutes over a time course of 16h. Growth inhibition was calculated during the logarithmic growth of the bacterial cells with determination of the concentration inhibiting 50% (IC50) and 90% (IC90) of the growth.
# Table 2 provides the 90% growth inhibitory concentrations (IC90) in micromoles per liter of the compounds of present invention obtained against the strain Acinetobacter baumannii ATCC17961.
row,SMILES,IC90
1,"CN=S(C)(=O)c1ccc(Nc2nccn3c(-c4ccc(OC)c(F)c4F)cnc23)cc1C (single isomer, unassigned; (+)) [Example 21, (+)-(4-((3-(2,3-difluoro-4-methoxyphenyl)imidazo[1,2-a]pyrazin-8-yl)amino)-2-methylphenyl)(methyl)(methylimino)-l6-sulfanone]",0.26 µM

# Same assay, conditions: Acinetobacter baumannii, ATCC17961, 16 h, 90% growth inhibitory concentration; Iso-Sensitest broth, optical density at 600 nm over 16h, 35±2° C.; read-out: AB ATCC 17961 IC90
row,SMILES,IC90
1,"COc1ccc(-c2cnc3c(Nc4ccc(S(=O)(=O)NCCOCCN)c(Cl)c4)nccn23)c(F)c1F [Example 101, N-(2-(2-aminoethoxy)ethyl)-2-chloro-4-((3-(2,3-difluoro-4-methoxyphenyl)imidazo[1,2-a]pyrazin-8-yl)amino) benzenesulfonamide hydrochloride]",0.078 µM
2,"CCc1cc(Nc2nccn3c(-c4ccc(OC)c(F)c4F)cnc23)ccc1S(=O)(=O)N1CCN(C(=O)[C@@H]2CCCN2)CC1 [Example 105, (S)(4-(4-((3-(2,3-difluoro-4-methoyphenyl)imidazo[1,2-a]pyrazin-8-yl)amino)-2-ethylphenyl)sulfonyl)piperazin-1-yl)(pyrrolidin-2-yl)methanone hydrochloride]",0.31 µM
3,"COc1ccc(-c2cnc3c(Nc4ccc5c(c4)CCC5NCCN)nccn23)c(F)c1F (centres unmarked) [Example 6, N1-(2-aminoethyl)-N5-[3-(2,3-difluoro-4-methoxy-phenyl)imidazo[1,2-a]pyrazin-8-yl]indane-1,5-diamine formic acid]",0.3 µM
4,"CN=S(=O)(CCCN)c1ccc(Nc2nccn3c(-c4ccc(OC)c(F)c4F)cnc23)cc1 (centres unmarked) [Example 71, N-(4-(3-amino-N-methylpropylsulfonimidoyl)phenyl)-3-(2,3-difluoro-4-methoxyphenyl)imidazo[1,2-a]pyrazin-8-amine]",0.086 µM
5,"COc1ccc(-c2cnc3c(Nc4ccc(N5CCC(CN)CC5)c(C)c4)nccn23)c(F)c1F [Example 113, N-(4-(4-(aminomethyl)piperidin-1-yl)-3-methylphenyl)-3-(2,3-difluoro-4-methoxyphenyl) imidazo [1,2-a]pyrazin-8-amine hydrochloride]",0.37 µM
6,"COc1ccc(-c2cnc3c(Nc4ccc5c(c4)CCC5=O)nccn23)c(F)c1F [Example 125, 5-[[3-(2,3-difluoro-4-methoxy-phenyl)imidazo[1,2-a]pyrazin-8-yl]amino]indan-1-one]",0.36 µM
7,"COc1ccc(-c2cnc3c(Nc4ccc(S(=O)(=O)NCCOCCN(C)C)c(C)c4)nccn23)c(F)c1F [Example 99, 4-((3-(2,3-difluoro-4-methoxyphenyl)imidazo[1,2-a]pyrazin-8-yl)amino)-N-(2-(2-(dimethylamino)ethoxy)ethyl)-methylbenzene sulfonamide]",0.28 µM
8,"COc1ccc(-c2cnc3c(Nc4ccc(NC(=O)CN5CCNCC5)c(C)c4)nccn23)cc1 [Example 37, N-(4-((3-(4-methoxyphenyl)imidazo[1,2-a]pyrazin-8-yl)amino)-2-methylphenyl)-2-(piperazin-1-yl)acetamide]",0.21 µM
9,"NCCCCCC1CC(=O)N(c2ccc(Nc3nccn4c(-c5ccc(OC(F)F)cc5)cnc34)cc2)C1 (centres unmarked) [Example 62, 4-(5-aminopentyl)-1-(4-((3-(4-(difluoromethoxy)phenyl)imidazo[1,2-a]pyrazin-s-yl)amino)phenyl)pyrrolidin-2-one]",0.094 µM
10,"COc1ccc(-c2cnc3c(Nc4ccc(N5CCC(CN)CC5)c(Cl)c4)nccn23)c(F)c1F [Example 115, N-(4-(4-(aminomethyl)piperidin-1-yl)-3-chlorophenyl)-3-(2,3-difluoro-4-methoxyphenyl) imidazo [1,2-a]pyrazin-8-amine hydrochloride]",0.49 µM
11,"COc1ccc(-c2cnc3c(Nc4ccc([S@](C)(=O)=NCCCNC(=O)[C@@H]5C[C@@H](O)CN5)c(C)c4)nccn23)c(F)c1F [Example 29, (2S,4R)—N-(3-(((−)-(4-((3-(2,3-difluoro-4-methoxyphenyl)imidazo[1,2-a]pyrazin-s-yl)amino)-2-methylphenyl)(methyl)(oxo)-l6-sulfaneylidene)amino)propyl)-4-hydroxypyrrolidine-2-carboxamide]",0.18 µM
12,"COc1ccc(-c2cnc3c(Nc4ccc(S(=O)(=O)C[C@H]5CC[C@H](N)CC5)c(Cl)c4)nccn23)c(F)c1F [Example 116, rac-N-(4-((((lr,4r)-4-aminocyclohexyl)methyl)sulfonyl)-3-chlorophenyl)-3-(2,3-difluoro-4-methoxyphenyl)imidazol[1,2-a]pyrazin-8-amine]",0.22 µM
13,"COc1ccc(-c2cnc3c(Nc4ccc([S@@](C)(=O)=NCCCNC(=O)[C@@H]5C[C@@H](O)CN5)c(C)c4)nccn23)c(F)c1F [Example 30, (2S,4R)-N-(3-(((+)-(4-((3-(2,3-difluoro-4-methoxyphenyl)imidazo[1,2-a]pyrazin-8-yl)amino)-2-methylphenyl) (methyl)(oxo)-16-sulfaneylidene)amino)propyl)-4-hydroxypyrrolidine-2-carboxamide dihydrochloride]",0.13 µM
14,"CN=S(=O)(c1ccc(Nc2nccn3c(-c4ccc(OC)c(F)c4F)cnc23)cc1C)N(C)C (stereo not drawn) [Example 31, 3-(2,3-difluoro-4-methoxy-phenyl)-N-[4-[S-(dimethylamino)-N-methyl-sulfonimidoyl]-3-methyl-phenyl]imidazo[1,2-a]pyrazin-8-amine]",0.5 µM
15,"CN=S(=O)(CCCN)c1ccc(Nc2nccn3c(-c4ccc(OC)c(F)c4F)cnc23)cc1C (centres unmarked) [Example 72, N-(4-(3-amino-N-methylpropylsulfonimidoyl)-3-methylphenyl)-3-(2,3-difluoro-4-methoxyphenyl)imidazo[1,2-a]pyrazin-8-amine]",0.12 µM
16,"COc1ccc(-c2cnc3c(Nc4ccc([S@](C)(=O)=NCCCN)c(C)c4)nccn23)c(F)c1F [Example 27, (−)-((3-aminopropyl)imino)(4-((3-(2,3-difluoro-4-methoxyphenyl)imidazo[1,2-a]pyrazin-8-yl)amino)-2-methylphenyl)(methyl)-l6-sulfanone]",0.086 µM
17,"COc1ccc(-c2cnc3c(Nc4ccc(NC(C)=O)c(Cl)c4)nccn23)cc1 [Example 39, N-(2-chloro-4-((3-(4-methoxyphenyl)imidazo[1,2-a]pyrazin-8-yl)amino)phenyl)acetamide]",0.1 µM
18,"NCCOCC1CC(=O)N(c2ccc(Nc3nccn4c(-c5ccc(OC(F)F)cc5)cnc34)cc2)C1 (centres unmarked) [Example 64, 4-((2-aminoethoxy)methyl)-1-(4-((3-(4-(difluoromethoxy)phenyl)imidazo[1,2-a]pyrazin-8-yl)amino)phenyl)pyrrolidin-2-one]",0.12 µM
19,"CCc1cc(Nc2nccn3c(-c4ccc(OC)c(F)c4F)cnc23)ccc1S(=O)(=O)N1CCNCC1 [Example 103, 3-(2,3-difluoro-4-methoxyphenyl)-N-(3-ethyl-4-(piperazin-1-ylsulfonyl)phenyl) imidazo[1,2-a]pyrazin-8-amine hydrochloride]",0.5 µM
20,"CCc1cc(Nc2nccn3c(-c4ccc(OC)c(F)c4F)cnc23)ccc1S(=O)(=O)N1CCN(C(=O)[C@@H]2C[C@@H](O)CN2)CC1 [Example 106, (4-((4-((3-(2,3-difluoro-4-methoxyphenyl)imidazo [1,2-a]pyrazin-8-yl)amino)-2-ethylphenyl)sulfonyl)piperazin-1-yl)((2S,4R)-4-hydroxypyrrolidin-2-yl)methanone hydrochloride]",0.25 µM
21,"COc1ccc(-c2cnc3c(Nc4ccc(S(C)(=O)=NCCCNC(=O)[C@@H]5C[C@@H](O)CN5)cc4)nccn23)c(F)c1F (mixture of isomers) [Example 33, rac-(2R,4S)-N-(3-(((4-((3-(2,3-difluoro-4-methoxyphenyl)imidazo[1,2-a]pyrazin-8-yl)amino)phenyl) (methyl)(oxo)-16-sulfaneylidene)amino)propyl)-4-hydroxypyrrolidine-2-carboxamide dihydrochloride]",0.49 µM

# Same assay, conditions: Acinetobacter baumannii, ATCC17961, 16 h, read-out: AB ATCC 17961 IC90 (uM)
row,SMILES,IC90
1,"COc1ccc(-c2cnc3c(Nc4ccc(S(=O)(=O)NCCOCCN)cc4)nccn23)c(F)c1F [Example 102, N-(2-(2-aminoethoxy)ethyl)-4-(3-(2,3-difluoro-4-methoxyphenyl)imidazo [1,2-a]pyrazin-8-yl)amino) benzenesulfonamide hydrochloride]",0.39 µM
2,"COc1ccc(-c2cnc3c(Nc4ccc(S(C)(=O)=NCCCN)c(C)c4)nccn23)c(F)c1F (centres unmarked) [Example 67, N-[4-[N-(3-aminopropyl)-S-methyl-sulfonimidoyl]-3-methyl-phenyl]-3-(2,3-difluoro-4-methoxy-phenyl)imidazo[1,2-a]pyrazin-8-amine; formic acid]",0.12 µM
3,"COc1ccc(-c2cnc3c(Nc4ccc(S(C)(=O)=NCCCN)cc4)nccn23)c(F)c1F (centres unmarked) [Example 68, N-[4-[N-(3-aminopropyl)-S-methyl-sulfonimidoyl]phenyl]-3-(2,3-difluoro-4-methoxy-phenyl)imidazo[1,2-a]pyrazin-8-amine; formic acid]",0.43 µM
4,"COc1ccc(-c2cnc3c(Nc4ccc(S(=O)(=O)N5CCN(CCCN(C)C)CC5)c(Cl)c4)nccn23)c(F)c1F [Example 96, N-(3-chloro-4-((4-(3-(dimethylamino)propyl)piperazin-1-yl)sulfonyl)phenyl)-3-(2,3-difluoro-4-methoxyphenyl)imidazo[1,2-a]pyrazin-8-amine]",0.2 µM
